Results on three molecules are retold here after paper PMC11199504, “New hemisynthetic derivatives of sphaeropsidin phytotoxins triggering severe endoplasmic reticulum swelling in cancer cells” (Scientific Reports, 2024).

One assay deals with SKMEL-28. As to the kind of experiment: MTT colorimetric assay, SKMEL-28. The assay is classed as cell-based. As to conditions: Homo sapiens, SK-MEL-28; 72 h treatment; mean ± SEM; resistant to apoptosis; read-out: IC50 determined by MTT assays, SKMEL-28. An outline of the steps: (§1)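 Cell lines cultured in RPMI1640 with 10% heat-inactivated FBS. Cells seeded 24 h before 72 h compound exposure over 10 nM to 100 µM, sextuplicate wells. Viability read by MTT colorimetric assay.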

A further assay concerns Hs683. As to the kind of experiment: MTT colorimetric assay, Hs683. The assay is classed as cell-based. To be noted: Homo sapiens, Hs 683; 72 h treatment; mean ± SEM; sensitive to apoptosis; read-out: IC50 determined by MTT assays, Hs683. An outline of the steps: as §1
For orientation: Tetrazolium dyes change colour on reduction, which living cells bring about.

Assay [1] addresses caspase-like activity of the proteasome (Homo sapiens, UniProt P28072). Description: Cellular proteasomal caspase-like activity. The class given is cell-based. Here is the method:
The chemotrypsin-like, trypsin-like and caspase-like activities of the proteasome were evaluated in cells with the G8660, G8861 and G8761 kits respectively according to the manufacturer’s instructions (Promega, USA). Briefly, the assays are based on the use of short amino-acid sequences coupled with luciferin and that can be specifically cleaved by each catalytic unit of the proteasomal complex. For this purpose, cells were seeded in 96 well plates 24 h before their treatment with 1 (5 µM), 13 (1 µM) for 6 h or with the positive control MG132 (1 µM) for 24 h. At the end of the treatments, cells were washed three times with PBS and permeabilized with digitonin (0.5 mg/mL; 50 µL per well) under shaking for 10 min. Then, 50 µL of a mixture of the substrate of interest and luciferase were added for 15 min under slow shaking. Luminescence levels quantified with the Active-Glo LR-100 luminometer (DSLabs, Suisse) were normalized according the number of viable cells evaluated in parallel in the same conditions by means of MTT assay.

Assay [2] concerns SKMEL-28 melanoma and U373 glioblastoma cells. As to the kind of experiment: Morphological evaluation by phase contrast microscopy / videomicroscopy. The class given is cell-based, human. Here is the method: For the morphological evaluation of the effects induced by compounds 1 and 13, 6 × 10^4 cells were seeded on glass coverslips placed in 6 well plates a minimum 24 h before their treatment. At the end of the incubation period with the treatment, coverslips were rinsed once in PBS buffer and directly mounted on slides to allow visualization of the cell with an Axio.Imager.M2 microscope (G X40 and G X100).

In assay [3] the test system is SK-MEL-28 human melanoma and U373 glioblastoma cells. Description: ER swelling / vacuole origin (CellLight ER-GFP, brightfield, TEM). The assay is classed as cell-based. To be noted: SK-MEL-28 and U373 cells. The source says: To decipher the origin of vacuoles, fluorescent probes staining different cellular compartments were used: the lysosomal Red DND-99 LysoTracker®, the glibenclamide Red ER tracker®, the green FM MitoTracker® that were all purchased from Lifes Technologies (Invitrogen, Belgium) and used according to manufacturer’s instructions. The CellLight ER-GFP (Thermofisher, Belgium) staining of the ER is based on the transfection of a plasmid coding for a fusion protein made of GFP fused to the ER signal sequence of calreticulin and the KDEL ER retention signal. Briefly, 6 × 10^4 cells were seeded on glass coverslips in 6 well plates. After a minimum of 24 h, cells were treated or not with the compounds of interest. Note that concentration and duration of the treatment were determined separately for each compound prior to the experiment on the basis of the apparition of marked morphological changes in phase contrast microscopy. Sixteen hours before the end of the experiment, 4 µL/well of the reagent were added to allow transfection and expression of the GFP-fused protein by the cells. Coverslips were then washed twice in PBS and mounted on slides without fixation step to take captions with the Axio.Imager.M2 microscope (Carl Zeiss, Belgium). To evaluate the cellular distribution of 13, the Axio.Imager.M2 was specifically equipped with an M340L4 excitation source (Thorlabs) and the pseudoconfocal Zeiss ZEN deconvolution system kindly provided for demo by Carl Zeiss (Belgium) to allow direct visualization of the compound 13 itself thanks to its intrinsic fluorescent properties.
For TEM, cells were fixed with glutaraldehyde 2.5% (EM grade, Electron Microscopy Sciences, EMS) at 4 °C overnight, washed tree times in cacodylate buffer (pH 7.4) and postfixed 1 h at room temperature in 1% OsO4, (EMS), 1.5% potassium ferrocyanide (Sigma-Aldrich) in 0.15 M cacodylate buffer. This was immediately followed by a second incubation in 1% OsO4 for 1 h at room temperature. After washing in distilled water, samples were stained with 1% uranyl acetate (EMS) and serially dehydrated in increasing ethanol concentrations. Samples were then embedded in epoxy resin (Agar 100 resin, Agar Scientific Ltd) and left to polymerize for 2 days at 60 °C. Ultrathin sections (50–70 nm thick) were collected with a Leica UC6 ultra-microtome on formvar-carbon-coated copper grids and further stained with uranyl acetate and lead citrate by standard procedures. Observations were made on a Tecnai 10 transmission electron microscope (FEI) and images were captured with a Veleta camera and processed with SIS iTEM software (Olympus).

A value given as a limit tells only on which side of the number the result lay.

Chain of caspase-like activity of the proteasome (P28072 whole entry): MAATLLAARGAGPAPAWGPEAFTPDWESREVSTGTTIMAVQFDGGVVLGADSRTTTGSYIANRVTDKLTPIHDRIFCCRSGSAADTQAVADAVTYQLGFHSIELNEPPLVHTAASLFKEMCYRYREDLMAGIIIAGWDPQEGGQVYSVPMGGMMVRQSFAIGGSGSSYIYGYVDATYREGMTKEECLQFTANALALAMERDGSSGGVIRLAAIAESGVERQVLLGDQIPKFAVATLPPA

`CC1(C=CCCCc2ccc3ccc4cccc5ccc2c3c45)C=C2C(=O)C3(O)OC(=O)C4(CCCC(C)(C)C34)C2(O)CC1` (stereo not drawn) [Compound 13]: the IC50 (commonly the concentration that gives 50% inhibition) in the assay with SKMEL-28 is 310 ± 10 nM; in the assay on Hs683, 350 ± 20 nM. The inhibition (in general, the drop in the measured response relative to a control, in per cent) at 1 µM in assay [1] (13 at 1 µM, 6 h of treatment, both SKMEL-28 and U373) was above 60%. For the same molecule, the “time to severe vacuolization” value in assay [2] (SKMEL-28 and U373 respectively) fell in the range of 15 to 24 h. Further, in assay [3], the “ER swelling / ER-derived vacuolization” value is “severe swelling of the ER”.
`CC1(C=CCCCc2ccc3ccc4cccc5ccc2c3c45)C=C2C(O)C3(O)OC(=O)C4(CCCC(C)(C)C34)C2(O)CC1` (stereo not drawn) [Compound 16]: the half-inhibitory concentration (IC50) in the assay on SKMEL-28 was 7240 ± 70 nM; in the assay on Hs683, 7340 ± 200 nM. The “ER swelling / ER-derived vacuolization” value in assay [3] is recorded as “severe ER-swelling”.
Regarding `C=C[C@]1(C)C=C2C(=O)[C@@]3(O)OC(=O)[C@@]4(CCCC(C)(C)[C@H]34)[C@@]2(O)CC1` [Compound 1, sphaeropsidin A, reference compound], the IC50 worked out at 2320 ± 150 nM with SKMEL-28 and 2310 ± 230 nM in the assay on Hs683. In assay [1] (1 at 5 µM, 6 h), the “effect on caspase-like proteasomal activity” value is “stimulate caspase-like activity”. For the same molecule, the “time to cellular shrinkage” value in assay [2] (SKMEL-28 and U373) was at most 6 h.
